# Measurements: the supplement of paper PMC10307832
# Tests used:
# Test in all cases: relative viability (nuclei count vs DMSO), 5 days (fraction); higher = more cells survive
# [1] = compound: O=C(c1cc(Cc2n[nH]c(=O)c3ccccc23)ccc1F)N1CCN(C(=O)C2CC2)CC1 [Olaparib] + N=C(N)NC(=N)NCCc1ccccc1 [Phenformin] (partner 250 µM)
# Summary of the method: (§1)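 A single step with final 0.05% Triton X-100, 1% formaldehyde and 1 ug/ml Hoechst fixed the cells and stained nuclei 5 days after treatment. Lung cancer cell lines in 1536-well plates had been treated by pin tool the day after seeding with one drug alone or a fixed anchor-drug dose plus five library-drug doses (not always all listed) in √10 steps, and nuclei were counted on 4× images. Relative viability is the ratio of nuclei in treated wells to nuclei in vehicle wells, taken as the median of duplicate plates.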
# [2] = compound: C[C@@H](Oc1cc(-c2cnn(C3CCNCC3)c2)cnc1N)c1c(Cl)ccc(F)c1Cl [Crizotinib] + Cc1nc(Nc2ncc(C(=O)Nc3c(C)cccc3Cl)s2)cc(N2CCN(CCO)CC2)n1 [Dasatinib] (partner 0.075 µM)
# Summary of the method: as §1
# [3] = compound: CC(C)C[C@H](NC(=O)[C@H](CCc1ccccc1)NC(=O)CN1CCOCC1)C(=O)N[C@@H](Cc1ccccc1)C(=O)N[C@@H](CC(C)C)C(=O)[C@@]1(C)CO1 [Carfilzomib] + O=C(CCCCCCC(=O)Nc1ccccc1)NO [Vorinostat] (partner 1 µM)
# Summary of the method: as §1
# [4] = compound: C[C@@H](Oc1cc(-c2cnn(C3CCNCC3)c2)cnc1N)c1c(Cl)ccc(F)c1Cl [Crizotinib] + Nc1ncn([C@H]2C[C@H](O)[C@@H](CO)O2)c(=O)n1 [Decitabine] (partner 2 µM)
# Summary of the method: as §1
Cell Line,relative viability ([1]; first compound 0.08 µM),relative viability ([1]; first compound 0.253 µM),relative viability ([1]; first compound 2.53 µM),relative viability ([1]; first compound 8 µM),relative viability ([2]; first compound 0.01 µM),relative viability ([2]; first compound 0.03162 µM),relative viability ([2]; first compound 0.1 µM),relative viability ([2]; first compound 1 µM),relative viability ([3]; first compound 0.001 µM),relative viability ([3]; first compound 0.003162 µM),relative viability ([3]; first compound 0.01 µM),relative viability ([3]; first compound 0.03162 µM),relative viability ([3]; first compound 0.1 µM),relative viability ([4]; first compound 0.01 µM),relative viability ([4]; first compound 0.03162 µM),relative viability ([4]; first compound 0.1 µM),relative viability ([4]; first compound 0.3162 µM),relative viability ([4]; first compound 1 µM),relative viability ([2]; first compound 0.3162 µM)
NCI-H2087,0.633,0.42,0.436,0.383,0.696,0.861,0.797,0.803,0.474,0.601,0.225,0.0585,0.0243,0.259,0.247,0.252,0.194,0.274,–
NCI-H2126,0.615,0.549,0.506,0.588,0.484,0.646,0.569,0.545,0.748,0.868,0.904,0.716,0.222,0.51,0.568,0.579,0.565,0.591,0.557
NCI-H2170,0.458,0.355,0.431,0.385,0.642,0.506,0.566,0.624,0.751,0.86,0.916,0.404,0.152,0.407,0.475,0.467,0.402,0.471,0.481
NCI-H2342,0.577,0.503,0.544,0.598,0.302,0.334,0.303,0.291,0.731,0.675,0.876,0.733,0.421,0.761,0.799,0.781,0.723,–,0.349
NCI-H2347,0.458,0.339,0.313,0.347,0.305,0.272,0.312,0.25,0.712,0.53,0.432,0.352,0.303,0.69,0.616,0.674,0.608,0.661,0.244
NCI-H2405,0.432,0.373,0.388,0.426,0.244,0.237,0.192,0.196,0.998,1.17,1.06,0.376,0.148,0.717,0.698,0.717,0.727,0.734,0.217
NCI-H3122,0.425,0.362,0.344,0.306,0.786,0.799,0.836,0.735,0.841,0.819,1.06,0.747,0.329,0.316,0.408,0.456,0.409,0.453,0.74
PC-3 [JPC-3],0.486,0.458,0.481,0.423,1.07,0.996,1.01,0.975,0.784,0.808,1.1,0.475,0.229,0.794,0.809,0.839,–,0.865,1.02
PC-14,0.79,0.384,0.609,0.519,0.286,0.241,0.245,0.238,0.71,0.754,0.228,0.0369,0.0418,0.182,0.248,0.225,0.244,0.248,0.201
RERF-LC-KJ,0.406,0.465,0.433,0.51,0.751,0.817,0.751,0.691,0.7,0.683,0.676,0.392,0.242,0.737,0.635,0.569,0.585,0.7,0.81
SK-LU-1,0.612,0.473,0.569,0.365,0.178,0.16,0.181,0.159,0.772,0.864,0.533,0.219,0.198,0.648,0.715,0.634,0.599,0.63,0.189
SK-MES-1,0.745,0.56,0.628,0.484,0.385,0.373,0.418,0.341,1.11,1.12,1.15,0.579,0.156,0.318,0.378,0.367,0.388,0.335,0.312
SW 900,0.614,0.525,0.558,0.555,0.449,0.518,0.763,0.633,–,0.469,0.198,0.168,0.188,0.418,0.436,0.403,0.449,0.459,0.597
SW 1573,0.444,0.373,0.266,0.258,0.352,0.389,0.51,0.454,0.648,1.31,0.243,0.0435,0.041,0.431,0.529,0.483,0.404,0.456,0.449
UMC-11,0.36,0.31,0.294,0.229,0.381,0.468,0.426,0.502,0.413,0.395,0.394,0.308,0.115,0.694,0.593,0.521,–,0.643,0.282
